# Measurements from patent US8344008B2 (Janssen Pharmaceutica NV, priority 2007, dated 2013).
# Counter-ions that a name gives are not always drawn. Like-named read-outs stand apart in the source and are kept apart here.
# Assays:
# [1] = test system: LTB4 production; settings: oral administration; mouse blood ex vivo; cited from earlier work
# [2] = test system: LTB4 production; settings: oral administration; rat peritoneum in vivo; cited from earlier work
# [3] = test system: colitis symptoms; settings: eight weeks of treatment; cotton top tamarins; cited from earlier work
# [4] = molecular target: T1, recombinant human LTA4 hydrolase (rhLTA4H) (Homo sapiens, UniProt P09960); assay: Recombinant Human LTA4 Hydrolase Assay for LTA4 Hydrolase Inhibitor Activity; format: biochemical; settings: average of results obtained; LTB4 quantified by enzyme-linked immunoassay
# T1 construct: made in house; host or cells: Spodoptera frugiperda (Sf-9) cells, baculovirus (pFastBac1)
# T1 sequence (P09960 1-611): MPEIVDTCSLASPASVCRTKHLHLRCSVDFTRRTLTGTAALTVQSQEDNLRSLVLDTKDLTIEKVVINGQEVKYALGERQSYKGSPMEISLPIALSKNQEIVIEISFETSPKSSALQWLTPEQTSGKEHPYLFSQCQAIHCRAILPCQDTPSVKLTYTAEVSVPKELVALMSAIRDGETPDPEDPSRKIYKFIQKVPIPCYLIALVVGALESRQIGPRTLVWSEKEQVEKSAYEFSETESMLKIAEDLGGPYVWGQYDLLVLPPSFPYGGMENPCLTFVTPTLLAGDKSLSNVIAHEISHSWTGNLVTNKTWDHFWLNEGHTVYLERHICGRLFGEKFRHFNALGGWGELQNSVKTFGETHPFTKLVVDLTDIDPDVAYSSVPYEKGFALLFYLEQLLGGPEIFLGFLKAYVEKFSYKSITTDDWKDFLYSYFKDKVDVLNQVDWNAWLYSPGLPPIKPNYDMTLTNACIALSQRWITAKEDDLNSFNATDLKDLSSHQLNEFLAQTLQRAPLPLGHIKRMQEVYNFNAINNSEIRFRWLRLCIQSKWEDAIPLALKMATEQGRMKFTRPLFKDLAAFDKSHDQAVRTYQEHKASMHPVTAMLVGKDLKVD
# In short: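 Baculovirus/Sf-9-expressed human LTA4 hydrolase (36 ng) preincubated with compound 10 min at rt in 0.1 M potassium phosphate pH 7.4, 5 mg/mL fatty-acid-free BSA. Reaction started with 9 ng LTA4 free acid, run 10 min at rt; LTB4 measured by enzyme immunoassay, IC50 from 4-parameter fit.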
Compound,Ki [4] [nM],other results
CN(CCCOc1ccc(Cc2ccccc2)cc1)CCC(=O)O.Cl [SC57461],–,inhibition of ionophore-induced LTB4 production [1]: caused inhibition; inhibition of ionophore-induced LTB4 production [2]: caused inhibition; colitis symptoms [3]: significantly improved colitis symptoms
"NC(=O)N1C[C@H]2CCN(Cc3ccc(Oc4nc5ccccc5s4)cc3)[C@H]2C1 [Example 138, (R,R)-1-[4-(Benzothiazol-2-yloxy)-benzyl]-hexahydro-pyrrolo[3,4-b]pyrrole-5-carboxylic acid amide]",29,–
"NC(=O)N1C[C@@H]2C[C@H]1CN2CCc1ccc(Oc2nc3ccccc3s2)cc1 [Example 38, (S,S)-5-{2-[4-(Benzothiazol-2-yloxy)-phenyl]-ethyl}-2,5-diaza-bicyclo[2.2.1]heptane-2-carboxylic acid amide]",3,–
"NC(=O)N[C@H]1C[C@H]2CC[C@@H](C1)N2CCOc1ccc(Oc2nc3cccc(Cl)c3s2)cc1 [Example 278, meso-endo-(8-{2-[4-(7-Chloro-benzothiazol-2-yloxy)-phenoxy]-ethyl}-8-aza-bicyclo[3.2.1]oct-3-yl)-urea]",1740,–
"CC(=O)N[C@H]1C[C@H]2CC[C@@H](C1)N2CCOc1ccc(Oc2nc3cc(F)ccc3s2)cc1 [Example 216, meso-endo-N-(8-{2-[4-(5-Fluoro-benzothiazol-2-yloxy)-phenoxy]-ethyl}-8-aza-bicyclo[3.2.1]oct-3-yl)-acetamide]",100,–
"CC(=O)N[C@H]1C[C@H]2CC[C@@H](C1)N2Cc1ccc(Oc2nc3c(C)cccc3s2)cc1 [Example 72, meso-endo-N-{8-[4-(4-Methyl-benzothiazol-2-yloxy)-benzyl]-8-aza-bicyclo[3.2.1]oct-3-yl}-acetamide]",98,–
"CC(=O)N1C[C@H]2C[C@@H]1CN2CCOc1ccc(Oc2nc3cccc(F)c3s2)cc1 [Example 249, (R,R)-1-(5-{2-[4-(7-Fluoro-benzothiazol-2-yloxy)-phenoxy]-ethyl}-2,5-diaza-bicyclo[2.2.1]hept-2-yl)-ethanone]",11,–
"Cn1ccc(C(=O)N2CC3CN(Cc4ccc(Oc5nc6ccccc6s5)cc4)CC3C2)c1 (stereo not shown) [Example 108, {5-[4-(Benzothiazol-2-yloxy)-benzyl]-hexahydro-pyrrolo[3,4-c]pyrrol-2-yl}-(1-methyl-1H-pyrrol-3-yl)-methanone]",97,–
"NC(=O)N[C@H]1C[C@H]2CC[C@@H](C1)N2CCc1ccc(Oc2nc3cccc(F)c3s2)cc1 [Example 190, meso-endo-(8-{2-[4-(7-Fluoro-benzothiazol-2-yloxy)-phenyl]-ethyl}-8-aza-bicyclo[3.2.1]oct-3-yl)-urea]",16,–
"O=C(N1C[C@@H]2C[C@H]1CN2CCOc1ccc(Oc2nc3ccccc3s2)cc1)C1(O)CC1 [Example 27, (S,S)-(5-{2-[4-(Benzothiazol-2-yloxy)-phenoxy]-ethyl}-2,5-diaza-bicyclo[2.2.1]hept-2-yl)-(1-hydroxy-cyclopropyl)-methanone]",1,–
"CC(=O)N[C@@H]1C[C@H]2CC[C@@H](C1)N2CCc1ccc(Oc2nc3cc(F)ccc3s2)cc1 [Example 266, meso-exo-N-(8-{2-[4-(5-Fluoro-benzothiazol-2-yloxy)-phenyl]-ethyl}-8-aza-bicyclo[3.2.1]oct-3-yl)-acetamide]",64,–
"O=C([C@H]1CCOC1)N1C[C@@H]2C[C@H]1CN2Cc1ccc(Oc2nc3ccccc3s2)cc1 [Example 13, (S,S,S)-{5-[4-(Benzothiazol-2-yloxy)-benzyl]-2,5-diaza-bicyclo[2.2.1]hept-2-yl}-(tetrahydro-furan-3-yl)-methanone]",34,–
"c1ccc2sc(Oc3ccc(CN4CC5CCNC5C4)cc3)nc2c1 (stereo not shown) [Example 81, 2-[4-(Hexahydro-pyrrolo[3,4-b]pyrrol-5-ylmethyl)-phenoxy]-benzothiazole hydrochloride]",162,–
"COC(=O)c1ccc(CN2CC3CN(Cc4ccc(Oc5nc6ccccc6s5)cc4)CC3C2)cc1 (stereo not shown) [Example 153, 4-{5-[4-(Benzothiazol-2-yloxy)-benzyl]-hexahydro-pyrrolo[3,4-c]pyrrol-2-ylmethyl)-benzoic acid methyl ester]",167,–
"CC(C)(O)C(=O)N1C[C@@H]2C[C@H]1CN2CCOc1ccc(Oc2nc3ccccc3s2)cc1 [Example 25, (S,S)-1-(5-{2-[4-(Benzothiazol-2-yloxy)-phenoxy]-ethyl}-2,5-diaza-bicyclo[2.2.1]hept-2-yl)-2-hydroxy-2-methyl-propan-1-one]",8,–
"O=C(O)c1ccc(CN2CC3CN(Cc4ccc(Oc5nc6ccccc6s5)cc4)CC3C2)cc1 (stereo not shown) [Example 154, 4-{5-[4-(Benzothiazol-2-yloxy)-benzyl]-hexahydro-pyrrolo[3,4-c]pyrrol-2-ylmethyl)-benzoic acid]",32,–
"CS(=O)(=O)N1C[C@@H]2C[C@H]1CN2CCOc1ccc(Oc2nc3c(F)cccc3s2)cc1 [Example 191, (S,S)-4-Fluoro-2-{4-[2-(5-methanesulfonyl-2,5-diaza-bicyclo[2.2.1]hept-2-yl)-ethoxy]-phenoxy}-benzothiazole]",32,–
